Measurements: ChEMBL document CHEMBL1201862, “PubChem BioAssay data set” (2004)
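Each compound was tested at five concentrations against cells in 96-well plates for 48 hours. The concentration for 50% growth inhibition is given as GI50.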 Calls of active or inactive are those of the source. Cut-off read from the data, not from the text of the source: active = GI50 up to about 1.1 µM and inactive = higher.

Columns and labels:
Assay in all cases: growth of human tumour cells (NCI), 48 h
HOP-62 = test system: HOP-62
BT-549 = test system: BT-549
K562 = test system: K562
UACC-62 = test system: UACC-62
HT-29 = test system: HT-29
ACHN = test system: ACHN
MOLT-4 = test system: MOLT-4
HOP-92 = test system: HOP-92
KM12 = test system: KM12
HCT-15 = test system: HCT-15
T47D = test system: T47D
SK-MEL-5 = test system: SK-MEL-5
NCI-H460 = test system: NCI-H460
SF-295 = test system: SF-295
SN12C = test system: SN12C
OVCAR-5 = test system: OVCAR-5
SK-OV-3 = test system: SK-OV-3
DU-145 = test system: DU-145
PC-3 = test system: PC-3
HCT-116 = test system: HCT-116
OVCAR-3 = test system: OVCAR-3
A549 = test system: A549
TK-10 = test system: TK-10
MDA-MB-435 = test system: MDA-MB-435
MCF7 = test system: MCF7
OVCAR-8 = test system: OVCAR-8
Hs-578T = test system: Hs-578T
SK-MEL-2 = test system: SK-MEL-2
EKVX = test system: EKVX
SR = test system: SR
NCI-H522 = test system: NCI-H522
CCRF-CEM = test system: CCRF-CEM
CAKI-1 = test system: CAKI-1
M14 = test system: M14
IGROV-1 = test system: IGROV-1
MDA-N = test system: MDA-N
Malme-3M = test system: Malme-3M
RPMI-8226 = test system: RPMI-8226
HL-60 = test system: HL-60
U-251 = test system: U-251
UACC-257 = test system: UACC-257
MDA-MB-231 = test system: MDA-MB-231
SW-620 = test system: SW-620
COLO 205 = test system: COLO 205
UO-31 = test system: UO-31
SF-539 = test system: SF-539
SNB-19 = test system: SNB-19
NCI/ADR-RES = test system: NCI/ADR-RES
786-0 = test system: 786-0
NCI-H23 = test system: NCI-H23
SF-268 = test system: SF-268
HCC 2998 = test system: HCC 2998
SNB-75 = test system: SNB-75
SK-MEL-28 = test system: SK-MEL-28
OVCAR-4 = test system: OVCAR-4
A498 = test system: A498
LOX IMVI = test system: LOX IMVI
RXF 393 = test system: RXF 393
NCI-H226 = test system: NCI-H226

Measured: GI50

CN1C2=Nc3n(C)c4ccccc4[n+]3CN2c2ccccc21
> 100 µM: HCT-15
inactive: HOP-62 > 100 µM | BT-549 > 100 µM | K562 29.5 µM | UACC-62 17 µM | HT-29 38 µM | ACHN > 100 µM | MOLT-4 16.8 µM | HOP-92 22.6 µM | KM12 8.73 µM | T47D 16.3 µM | SK-MEL-5 12.6 µM | NCI-H460 24.2 µM | SF-295 95.7 µM | SN12C 25.8 µM | OVCAR-5 84.1 µM | SK-OV-3 > 100 µM | DU-145 43.3 µM | PC-3 47.3 µM | HCT-116 43.2 µM | OVCAR-3 10.8 µM | A549 37.6 µM | TK-10 > 100 µM | MDA-MB-435 26.5 µM | MCF7 10.5 µM | OVCAR-8 57.1 µM | Hs-578T 27.5 µM | SK-MEL-2 18.4 µM | EKVX 36.1 µM | SR 28.3 µM | NCI-H522 16.8 µM | CCRF-CEM 47.4 µM | CAKI-1 > 100 µM | M14 43.7 µM | IGROV-1 29.9 µM | MDA-N 17.8 µM | Malme-3M 4.21 µM | RPMI-8226 41.1 µM | HL-60 > 100 µM | U-251 25.2 µM | UACC-257 32.1 µM | MDA-MB-231 34.6 µM | SW-620 24.3 µM | COLO 205 12.7 µM | UO-31 > 100 µM | SF-539 69.5 µM | SNB-19 35.3 µM | NCI/ADR-RES > 100 µM | 786-0 36.2 µM | NCI-H23 26.5 µM | SF-268 13.1 µM

Clc1ccc(CSCc2ccc(Cl)cc2Cl)c(Cl)c1
inactive: HOP-62 > 100 µM | BT-549 97.5 µM | K562 57.5 µM | UACC-62 50 µM | HT-29 29.9 µM | ACHN > 100 µM | MOLT-4 19.4 µM | HOP-92 54.2 µM | KM12 40.2 µM | HCC 2998 26.3 µM | SNB-75 48.3 µM | T47D 22.5 µM | SK-MEL-5 29.9 µM | NCI-H460 95.9 µM | SF-295 37.3 µM | SK-MEL-28 79.6 µM | OVCAR-4 36.4 µM | SN12C > 100 µM | OVCAR-5 > 100 µM | SK-OV-3 > 100 µM | DU-145 39.6 µM | PC-3 44.1 µM | A498 40.2 µM | HCT-116 41.4 µM | OVCAR-3 88.3 µM | A549 34.3 µM | LOX IMVI 36.1 µM | RXF 393 20 µM | TK-10 > 100 µM | MDA-MB-435 41 µM | MCF7 27.7 µM | OVCAR-8 > 100 µM | Hs-578T 79.4 µM | SK-MEL-2 21.3 µM | EKVX 57.5 µM | NCI-H522 24.8 µM | CCRF-CEM 22.2 µM | CAKI-1 86.1 µM | M14 79.8 µM | IGROV-1 41.8 µM | MDA-N 38.8 µM | Malme-3M 28.2 µM | RPMI-8226 28.1 µM | HL-60 39.7 µM | U-251 54 µM | NCI-H226 > 100 µM | UACC-257 25.6 µM | MDA-MB-231 > 100 µM | SW-620 42.8 µM | COLO 205 65.8 µM | UO-31 > 100 µM | SF-539 > 100 µM | SNB-19 > 100 µM | NCI/ADR-RES > 100 µM | 786-0 60.8 µM | NCI-H23 78.5 µM | SF-268 71 µM
32.2 µM: HCT-15
